By Ki is commonly meant a measure of affinity in units of concentration, obtained from inhibition or displacement.

One test deals with subtilisin. The note with it: Keller et al, Biochem. Biophys. Res. Com. 176, 1991, pp. 401-405; cited from earlier work.
Another test has as its target T1, Alcalase (Bacillus licheniformis, UniProt P00780).
T1 construct: purchased Novo Nordisk A/S
T1 sequence (P00780 106-379): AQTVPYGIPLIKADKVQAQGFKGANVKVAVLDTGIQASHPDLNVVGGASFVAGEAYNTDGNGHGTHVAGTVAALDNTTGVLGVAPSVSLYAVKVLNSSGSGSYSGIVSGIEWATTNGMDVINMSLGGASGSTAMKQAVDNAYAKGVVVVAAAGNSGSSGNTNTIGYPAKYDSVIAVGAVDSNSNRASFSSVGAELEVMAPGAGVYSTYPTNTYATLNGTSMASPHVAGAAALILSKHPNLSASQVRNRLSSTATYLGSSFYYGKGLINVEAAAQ
Put plainly: Determination of Ki, inhibition of Alcalase. Type of test: biochemical. The source says: (§1) c) Determination of Ki : The inhibition constant Ki may be determined by using standard methods, for reference see Keller et al, Biochem. Biophys. Res. Com. 176, 1991, pp.401-405; J. Bieth in Bayer-Symposium "Proteinase Inhibitors", pp. 463-469, Springer-Verlag, 1974 and Lone Kierstein Hansen in "Determination of Specific Activities of Selected Deterrent Proteases using Protease Activity, Molecular Weights, Kinetic Parameters and Inhibition Kinetics", PhD-report, Novo Nordisk A/S and University of Copenhagen, 1991.
(§2) The inhibition constant Ki for the inhibition of Alcalase and Savinase was determined using standard methods under the following conditions:
(§3) Substrate: Succinyl-Alanine-Alanine-Proline-Phenylalanine-paranitro-anilide=SAAPFpNA (Sigma S-7388).
(§4) Buffer: 0.1M Tris-HCl pH 8.6; 25° C.
(§5) Enzyme concentration in assay:
(§6) The initial rate of substrate hydrolysis was determined at nine substrate concentrations in the range of 0.01 to 2 mM using a Cobas Fara automated spectrophotometer. The kinetic parameters Vmax and Km were determined using ENZFITTER (a non-linear regression data analysis program). kcat was calculated from the equation Vmax =kcat ×[Eo ]. The concentration of active enzyme [Eo ] was determined by active site titration using tight-binding protein proteinase inhibitors. The inhibition constant Ki was calculated from plots of Km /kcat as a function of the concentration of inhibitor. The inhibitors were assumed to be 100% pure and the molar concentrations were determined using weighing numbers and molecular weights.

For another test, the target named is T2, Savinase (Lederbergia lenta, UniProt P29600).
T2 construct: purchased Novo Nordisk A/S
T2 sequence (P29600 1-269): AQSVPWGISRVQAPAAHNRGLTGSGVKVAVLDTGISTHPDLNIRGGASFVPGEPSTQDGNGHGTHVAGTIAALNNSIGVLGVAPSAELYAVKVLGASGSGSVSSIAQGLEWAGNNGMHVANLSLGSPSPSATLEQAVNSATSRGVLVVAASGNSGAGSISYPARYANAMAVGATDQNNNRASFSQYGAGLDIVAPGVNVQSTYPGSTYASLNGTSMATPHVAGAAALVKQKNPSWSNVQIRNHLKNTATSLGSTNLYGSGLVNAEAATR
Put plainly: Determination of Ki, inhibition of Savinase. Type of test: biochemical, Bacillus.
Description: as §1, §2, §3, §4, §5, §6

The next test has as its system proteolytic enzymes. The note with it: prior art; WO 92/19707 for acetamidobenzene boronic acid; cited from earlier work.
[1] abbreviates: substrate SAAPFpNA, 0.1M Tris-HCl pH 8.6, 25° C., Alcalase 1×10^-10 - 3×10^-10 M, read-out: Ki Alcalase.
[2] abbreviates: substrate SAAPFpNA, 0.1M Tris-HCl pH 8.6, 25° C., Savinase 1×10^-10 - 3×10^-10 M, read-out: Ki Savinase.

Read-outs that look alike come from different tables or passages of the source.

Take `OB(O)c1cc(Cl)cc(Cl)c1` [3,5-dichlorophenylboronic acid]: in the test on subtilisin, the “capacity as subtilisin inhibitor” value is recorded as “particularly effective”. As for `OB(O)c1ccc2cc(O)ccc2c1` [6-hydroxynaphthalene-2-boronic acid], the results for the Ki on Alcalase (setting [1]) and at Savinase (setting [2]) were 500 µM and 600 µM, respectively. Turning to `OB(O)O` [Boric acid], the results for the Ki at Alcalase and at Savinase were 30000 µM and 20000 µM, respectively. Further, the “inhibition of proteolytic enzymes” value with proteolytic enzymes is “reversibly inhibit proteolytic enzymes”. With `OB(O)c1cccc2ccccc12` [Naphthalene-1-boronic acid, Naphthalene-1-Boronic Acid], the figures for the Ki on Alcalase (setting [1]) and at Savinase (setting [2]) were 500 µM and 900 µM, respectively.

Consider `OB(O)c1ccc2ccccc2c1` [Naphthalene-2-boronic acid, Naphthalene-2-Boronic Acid], for which the figures for the Ki at Alcalase (setting [1]) and at Savinase (setting [2]) were 400 µM and 300 µM, respectively. Turning to `CB(O)O` [methylboronic acid], the “capacity as subtilisin inhibitor” value in the test on subtilisin is recorded as “poorest inhibitor”. For acetamidobenzene boronic acid, in the test on proteolytic enzymes, the “inhibition of proteolytic enzymes” value is “superior inhibitor of proteolytic enzymes”.

The record behind these values is US5834415A, “Naphthalene boronic acids” (Novo Nordisk A/S, priority 1994, dated 1998).
